Results as given in US10377770B2 (Novartis AG, priority 2015, dated 2019).
pIC50: −log10 of the molar value.

Molecular target: C-Raf FL (full length CRAF with Y340E and Y341E activating mutations, co-expressed with h14-3-3 zeta) (Homo sapiens (Human), UniProt P04049, Y340E/Y341E)
Assay: In vitro Raf activity determination, AlphaScreen p-MEK readout, c-Raf (C-Raf FL)
Assay type: biochemical
Conditions: c-Raf approximately 4 nM, ATP 1 μM, pre-incubation 60 minutes, reaction 1 hour
Procedure, shortened: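 Full-length C-Raf (~4 nM) pre-incubated 60 min at room temperature with compound and kinase-dead biotinylated MEK1 (~10 nM) in Tris pH 7.5, 15 mM MgCl2, BSA, DTT. Reaction started with 1 μM ATP and run 1 h at room temperature. Phospho-MEK detected by AlphaScreen with anti-p-MEK antibody.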

Sequence of C-Raf FL (full length CRAF with Y340E and Y341E activating mutations, co-expressed with h14-3-3 zeta) (P04049 whole entry Y340E/Y341E): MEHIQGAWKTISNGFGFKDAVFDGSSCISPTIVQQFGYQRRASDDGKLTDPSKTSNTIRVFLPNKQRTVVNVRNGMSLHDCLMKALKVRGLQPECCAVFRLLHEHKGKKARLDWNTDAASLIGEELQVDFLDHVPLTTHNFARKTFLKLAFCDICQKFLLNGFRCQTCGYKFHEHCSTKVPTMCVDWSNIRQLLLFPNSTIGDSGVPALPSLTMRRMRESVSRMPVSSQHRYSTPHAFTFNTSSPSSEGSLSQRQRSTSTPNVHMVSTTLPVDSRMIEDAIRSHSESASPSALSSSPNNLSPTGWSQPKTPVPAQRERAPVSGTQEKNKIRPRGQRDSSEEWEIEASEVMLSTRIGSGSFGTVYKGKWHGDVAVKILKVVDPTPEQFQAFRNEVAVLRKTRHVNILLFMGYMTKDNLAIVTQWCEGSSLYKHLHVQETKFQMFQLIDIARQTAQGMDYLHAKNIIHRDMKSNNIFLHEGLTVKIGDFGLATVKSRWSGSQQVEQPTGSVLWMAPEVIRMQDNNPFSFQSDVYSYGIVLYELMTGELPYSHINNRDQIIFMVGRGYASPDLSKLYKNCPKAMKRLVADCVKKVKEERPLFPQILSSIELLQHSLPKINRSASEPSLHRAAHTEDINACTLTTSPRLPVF
Sequence of C-Raf FL (full length CRAF with Y340E and Y341E activating mutations, co-expressed with h14-3-3 zeta) (P63104 whole entry partner): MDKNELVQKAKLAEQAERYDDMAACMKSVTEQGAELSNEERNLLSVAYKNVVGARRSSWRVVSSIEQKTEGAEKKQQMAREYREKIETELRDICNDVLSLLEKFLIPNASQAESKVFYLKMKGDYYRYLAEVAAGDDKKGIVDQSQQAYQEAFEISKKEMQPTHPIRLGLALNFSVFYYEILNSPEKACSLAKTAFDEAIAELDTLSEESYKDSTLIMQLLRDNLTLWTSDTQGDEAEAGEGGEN

First: CCN1C(=O)C2(F)COCC[C@@H]2c2cc(-c3cc(NC(=O)c4cccc(C(F)(F)F)c4)cnc3C)cnc21 (stereo partly drawn) [Example 340, N-(5-((10bR)-6-ethyl-4a-fluoro-5-oxo-2,4,4a,5,6,10b-hexahydro-1H-pyrano[3,4-c][1,8]naphthyridin-9-yl)-6-methylpyridin-3-yl)-3-(trifluoromethyl) benzamide]
Second: CCN1C(=O)Cc2nncn2-c2cc(-c3cc(NC(=O)c4cccc(C(F)(F)F)c4)cnc3C)cnc21 [Example 238, N-(5-(6-ethyl-5-oxo-5,6-dihydro-4H-pyrido[2,3-b][1,2,4]triazo1o[4,3-d][1,4]diazepin-9-yl)-6-methylpyridin-3-yl)-3-(trifluoromethyl) benzamide]
The pIC50 of the first is 0.32 log units higher: 8.89 for the first, 8.57 for the second. The first is the more potent here.

Going from `Cc1ccc(NC(=O)c2cc(N)nc(C(F)(F)F)c2)cc1-c1ccc2c(c1)N1CCOC[C@H]1[C@](F)(CO)C2` [Example 390, 2-amino-N-(3-((4aS,5S)-5-fluoro-5-(hydroxymethyl)-1,2,4,4a,5,6-hexahydro-[1,4]oxazino[4,3-a]quinolin-9-yl)-4-methylphenyl)-6-(trifluoromethyl)isonicotinamide] to `Cc1ccc(NC(=O)c2cnnc(C(F)(F)F)c2)cc1-c1ccc2c(c1)N1CCOC[C@@H]1[C@](F)(CO)C2` [Example 403, N-(3-((4aR,5S)-5-fluoro-5-(hydroxymethyl)-1,2,4,4a,5,6-hexahydro-[1,4]oxazino[4,3-a]quinolin-9-yl)-4-methylphenyl)-6-(trifluoromethyl)pyridazine-4-carboxamide], the pIC50 rises from 8.77 to 10.00 (1.23 log units). The second is the more potent here.

Compared with `CCN1C[C@@H]2CCOCCN2c2cc(-c3cc(NC(=O)c4ccnc(C(F)(F)F)c4)ccc3C)cnc2C1=O` [Example 504, (S)-N-(3-(7-ethyl-8-oxo-1,2,4,5,5a,6,7,8-octahydropyrido[2′, 3′:6,7][1,4]diazepino [1,2-d][1,4]oxazepin-11-yl)-4-methylphenyl)-2-(trifluoromethyl)iso-nicotinamide], `Cc1ccc(NC(=O)c2ccnc(C(F)(F)F)c2)cc1-c1cnc2c(c1)N1CCOC[C@@H]1C1(COC1)C2` [Example 155, (S)-N-(4-methyl-3-(1′,2′,4′,4a′-tetrahydro-6′H-spiro[oxetane-3,5′-[1,4]oxazino[4,3-a][1,5]naphthyridin]-9′-yl)phenyl)-2-(trifluoromethyl)isonicotinamide] is 1.63 log units higher in pIC50: 7.81 for the first, 9.44 for the second.

First: CCN1C(=O)OC2COCCC2c2cc(-c3cc(NC(=O)c4ccnc(C(F)(F)F)c4F)ccc3C)cnc21 [Example 299, N-(3-((4aS,11bR- cis)-7-ethyl-6-oxo-2,4,4a,6,7,11b-hexahydro-1H-pyrano[4,3-f]pyrido[2,3-d][1,3]oxazepin-10-yl)-4-methylphenyl)-3-fluoro-2-(trifluoromethyl) isonicotinamide]
Second: Cc1ccc(NC(=O)c2ccnc(C(F)(F)F)c2F)cc1-c1cnc2c(c1)C1(C)CCOCCC1C(=O)N2CCO (single isomer, unassigned) [Example 354, 3-fluoro-N-(3-((5a,11b-trans)-7-(2-hydroxyethyl)-11b-methyl-6-oxo-1,2,4,5,5a,6,7,11b-octahydrooxepino[4,5-c][1,8]naphthyridin-10-yl)-4-methylphenyl)-2-(trifluoromethyl)isonicotinamide]
The pIC50 of the first is 0.48 log units higher: 10.00 for the first, 9.52 for the second.

First: Cc1ccc(NC(=O)c2ccnc(C(F)(F)F)c2)cc1-c1ccc2c(c1)N1CCOC[C@H]1[C@](F)(CF)C2 [Example 472, N-(3-((4aS,5S)-5-fluoro-5-(fluoromethyl)-1,2,4,4a,5,6-hexahydro-[1,4]oxazino[4,3-a]quinolin-9-yl)-4-methylphenyl)-2-(trifluoromethyl)iso-nicotinamide]
Second: Cc1ccc(NC(=O)c2ccnc(C(F)(F)F)c2)cc1-c1ccc2c(c1)N1CCOC[C@H]1[C@@](F)(CO)C2 [Example 396, N-(3-((4aS,5R)-5-fluoro-5-(hydroxymethyl)-1,2,4,4a,5,6-hexahydro-[1,4]oxazino[4,3-a]quinolin-9-yl)-4-methylphenyl)-2-(trifluoromethyl)isonicotinamide]
The pIC50 of the first is 1.00 log units lower: 8.70 for the first, 9.70 for the second.

Compared with `Cc1ccc(NC(=O)c2cnnc(C(F)(F)F)c2)cc1-c1cnc2c(c1)N1CCOC[C@H]1C[C@H]2OCCO` [Example 512, N-(3-((4aR,6R)-6-(2-hydroxyethoxy)-1,2,4,4a,5,6-hexahydro-[1,4]oxazino[4,3-a][1,5]naphthyridin-9-yl)-4-methylphenyl)-6-(trifluorometh-yl)pyridazine-4-carboxamide], `Cc1ccc(NC(=O)c2cncc(C(F)(F)F)c2)cc1-c1cnc2c(c1)N1CCOC[C@H]1C[C@H]2O` [Example 145, N-(3-((4aR,6R)-6-hydroxy-1,2,4,4a,5,6-hexahydro-[1,4]oxazino[4,3-a][1,5]naphthyridin-9-yl)-4-methylphenyl)-5-(trifluoromethyl)nicotinamide] is 1.37 log units higher in pIC50: 9.40 for the first, 10.77 for the second.

Going from `Cc1ccc(NC(=O)c2ccnc(C(C)(F)F)c2)cc1-c1cc2c(cc1F)C[C@](F)(CO)[C@H]1COCCN21` [Example 476, N-(3-((4aR,5R)-5,8-difluoro-5-(hydroxymethyl)-1,2,4,4a,5,6-hexahydro-[1,4]oxazino[4,3-a]quinolin-9-yl)-4-methylphenyl)-2-(1,1-difluoroethyl)iso-nicotinamide] to `Cc1ccc(NC(=O)c2ccnc(C(C)(F)F)c2)cc1-c1ccc2c(c1)N1CCOC[C@@H]1[C@@](F)(CO)C2` [Example 81, 2-(1,1-difluoroethyl)-N-(3-((4aR,5R)-5-fluoro-5-(hydroxymethyl)-1,2,4,4a,5,6-hexahydro-[1,4]oxazino[4,3-a]quinolin-9-yl)-4-methylphenyl)isonicotinamide], the pIC50 rises from 9.70 to 10.09 (0.39 log units). The second is the more potent here.

First: Cc1ncc(NC(=O)c2cccc(C(F)(F)F)c2)cc1-c1cnc2c(c1)N1CCOC[C@H]1[C@H](CO)C2 [Example 120, N-(5-((4aR,5R)-5-(Hydroxymethyl)-1,2,4,4a,5,6-hexahydro-[1,4]oxazino[4,3-a][1,5]naphthyridin-9-yl)-6-methylpyridin-3-yl)-3-(trifluoromethyl)benzamide]
Second: Cc1ncc(NC(=O)c2cccc(C(F)(F)F)c2)cc1-c1ccc2c(c1)N1CCOC[C@@H]1[C@@](CO)(CF)C2 [Example 406, N-(5-((4aS,5S)-5-(fluoromethyl)-5-(hydroxymethyl)-1,2,4,4a,5,6-hexahydro-[1,4]oxazino[4,3-a]quinolin-9-yl)-6-methylpyridin-3-yl)-3-(trifluoromethyl)benzamide]
The pIC50 of the first is 1.56 log units higher: 10.96 for the first, 9.40 for the second.

First: Cc1ccc(NC(=O)c2cncc(C(F)(F)F)c2)cc1-c1cnc2c(c1)C1(C)CCOCCC1C(=O)N2CCO (single isomer, unassigned) [Example 358, N-(3-((5a,11b-trans)-7-(2-hydroxyethyl)-11b-methyl-6-oxo-1,2,4,5,5a,6,7,11b-octahydrooxepino[4,5-c][1,8]naphthyridin-10-yl)-4-methylphenyl)-5-(trifluoromethyl)nicotinamide]
Second: CCN1C(=O)[C@@H]2COCC[C@@]2(C)c2cc(-c3cc(NC(=O)c4ccnc(C(F)(F)F)c4)ccc3C)cnc21 (relative stereo) [Example 341, N-(3-((4a,10b-trans)-6-ethyl-10b-methyl-5-oxo-2,4,4a,5,6,10b-hexahydro-1H-pyrano[3,4-c][1,8]naphthyridin-9-yl)-4-methylphenyl)-2-(trifluoromethyl)isonicotinamide]
The pIC50 of the first is 0.78 log units higher: 10.00 for the first, 9.22 for the second. The first is the more potent here.

`Cc1ccc(NC(=O)c2ccnc(C(C)(F)F)c2)cc1-c1ccc2c(c1)N1CCOC[C@H]1[C@H](C#N)C2` (racemic) [Example 90, (rac)-N-(3-(5-cyano-1,2,4,4a,5,6-hexahydro-[1,4]oxazino[4,3-a]quinolin-9-yl)-4-methylphenyl)-2-(1,1-difluoroethyl)isonicotinamid] and `Cc1ccc(NC(=O)c2ccnc(C(C)(F)F)c2)cc1-c1cc2n(c(=O)c1)CCC1COCCN21` (stereo not shown) [Example 95] are within 0.2 log units of each other in pIC50: 10.64 for the first, 10.52 for the second.

Compared with `Cc1ccc(NC(=O)c2ccnc(C(F)(F)F)c2)cc1-c1ccc2c(c1)N1CCOC[C@H]1[C@](CO)(CF)C2` [Example 408, N-(3-((4aR,5R)-5-(fluoromethyl)-5-(hydroxymethyl)-1,2,4,4a,5,6-hexahydro-[1,4]oxazino[4,3-a]quinolin-9-yl)-4-methylphenyl)-2-(trifluoromethyl)isonicotinamide], `Cc1ccc(NC(=O)c2ccnc(C(F)(F)F)c2)cc1-c1cc(F)c2c(c1)N1CCOC[C@@H]1[C@@](F)(CO)C2` [Example 424, N-(3-((4aR,5R)-5,7-difluoro-5-(hydroxymethyl)-1,2,4,4a,5,6-hexahydro-[1,4]oxazino[4,3-a]quinolin-9-yl)-4-methylphenyl)-2-(trifluoromethyl)isonicotinamide] is 0.55 log units higher in pIC50: 9.15 for the first, 9.70 for the second.

Compared with `Cc1ncc(NC(=O)c2cccc(C(C)(F)F)c2)cc1-c1ccc2c(c1)N1CCOC[C@H]1[C@](F)(CO)C2` [Example 367, 3-(1,1-difluoroethyl)-N-(5-((4aS,5S)-5-fluoro-5-(hydroxymethyl)-1,2,4,4a,5,6-hexahydro-[1,4]oxazino[4,3-a]quinolin-9-yl)-6-methylpyridin-3-yl)benzamide], `Cc1ncc(NC(=O)c2cncc(C(F)(F)F)c2)cc1-c1ccc2c(c1)N1CCOC[C@H]1[C@](F)(CF)C2` [Example 470, N-(5-((4aS,5S)-5-fluoro-5-(fluoromethyl)-1,2,4,4a,5,6-hexahydro-[1,4]oxazino[4,3-a]quinolin-9-yl)-6-methylpyridin-3-yl)-5-(trifluorometh-yl)nicotinamide] is 0.34 log units lower in pIC50: 9.00 for the first, 8.66 for the second. The first is the more potent here.

`CCN1C(=O)N2COCCC2(C)c2cc(-c3cc(NC(=O)c4ccnc(C(F)(F)F)c4)ccc3C)ccc21` (stereo not shown) [Example 244, N-(3-(7-ethyl-11b-methyl-6-oxo-1,2,4,6,7,11b-hexahydro-[1,3]oxazino[3,4-c]quinazolin-10-yl)-4-methylphenyl)-2-(trifluoromethyl) isonicotinamide] was tested, and the pIC50 was 10.00.
